Article PMC7435711, “Synthesis and Pharmacological Effects of Diosgenin–Betulinic Acid Conjugates” (Molecules, 2020)
Read-outs that look alike come from different tables or passages of the source.

What was measured:
[1] = tested on: human T-lymphoblastic leukemia (CEM) cells; test: Cytotoxicity screening test, CEM; conditions: CCRF-CEM, 72 h, read-out: Cytotoxicity IC50, CEM
Experimental: (§1) Doxorubicin was used as a positive control.
(§2) The screening cell lines, T-lymphoblastic leukemia (CEM), cervical carcinoma (HeLa), breast carcinoma (MCF7), and human foreskin fibroblasts (BJ) were obtained from the American Type Culture Collection (Manassas, VA, USA). Cells were cultured in DMEM (Dulbecco’s Modified Eagle Medium, Sigma Aldrich, Darmstadt, Germany). Media used were supplemented with 10% fetal bovine serum, 2 mM L-glutamine, and 1% penicillin-streptomycin (all from Sigma Aldrich, Darmstadt, Germany). The cell lines were maintained under standard cell culture conditions at 37 °C and 5% CO2 in humid environment. Cells were subcultured twice or three times a week using the standard trypsinization procedure.

[2] = tested on: human breast adenocarcinoma (MCF7) cells; test: Cytotoxicity screening test, MCF7; conditions: MCF7, 72 h, read-out: Cytotoxicity IC50, MCF7
Experimental: as §1, §2

[3] = tested on: human cervical cancer (HeLa) cells; test: Cytotoxicity screening test, HeLa; conditions: 72 h, read-out: Cytotoxicity IC50, HeLa
Experimental: as §1, §2

[4] = tested on: human colon carcinoma (HCT 116) cells; test: Cytotoxicity screening test, HCT 116; conditions: HCT-116, 72 h, read-out: Cytotoxicity IC50, HCT 116
[5] = Cytotoxicity screening test, BJ reference cells; conditions: human, BJ normal foreskin fibroblasts
Experimental: as §1, §2

[6] = tested on: CEM, MCF7, HeLa, HCT 116 cancer cell lines and BJ fibroblasts; test: Cytotoxicity screening tests, summary statements over the cell line panel; conditions: for IC50: Homo sapiens, 72 h, read-out: IC50 against all tested cell lines
Experimental: as §1, §2

[7] = tested on: CEM, MCF7, HeLa, HCT 116 cancer cell lines and BJ fibroblasts
Experimental: as §1, §2

in vitro = conditions: human
Experimental: as §1, §2

Row | SMILES | IC50 [1] | IC50 [2] | IC50 [3] | IC50 [4] | IC50 at 72 h [5] | IC50 [6] | Cytotoxicity (in words) ([6]; summary over the tested cell lines) | Cytotoxicity (in words) [7] | IC50 at 72 h (in vitro)
1 | C[C@@H]1CC[C@@]2(OC1)O[C@H]1C[C@H]3[C@@H]4CC=C5C[C@@H](O)CC[C@]5(C)[C@H]4CC[C@]3(C)[C@H]1[C@@H]2C [Compound 1, (3β,25R)-spirost-5-en-3-ol, reference compound] | > 50 µM | > 50 µM | > 50 µM | > 50 µM | > 50 µM | > 50 µM |  |  | 
2 | C=C(C)[C@@H]1CC[C@]2(C(=O)O)CC[C@]3(C)[C@H](CC[C@@H]4[C@@]5(C)CC[C@H](O)C(C)(C)[C@@H]5CC[C@]43C)[C@@H]12 [Compound 2, 3β-hydroxylup-20(29)-en-28-oic acid, reference compound] | > 50 µM | > 50 µM | > 50 µM | > 50 µM | > 50 µM | > 50 µM | no cytotoxicity |  | 
3 | C=C(C)[C@@H]1CC[C@]2(C(=O)OCc3ccccc3)CC[C@]3(C)[C@H](CC[C@@H]4[C@@]5(C)CC[C@H](O)C(C)(C)[C@@H]5CC[C@]43C)[C@@H]12 [Compound 3, Benzyl (3β)-3-hydroxylup-20(29)-en-28-oate] | > 50 µM | > 50 µM | > 50 µM | > 50 µM |  | > 50 µM |  | no cytotoxicity | > 50 µM
4 | C#CCO[C@H]1CC[C@]2(C)[C@H]3CC[C@@H]4[C@H]5[C@H](C(=C)C)CC[C@]5(C(=O)OCc5ccccc5)CC[C@@]4(C)[C@]3(C)CC[C@H]2C1(C)C [Compound 4, Benzyl (3β)-3-(prop-2-yn-1-yloxy)lup-20(29)-en-28-oate] | > 50 µM | > 50 µM | > 50 µM | > 50 µM |  | > 50 µM |  | no cytotoxicity | > 50 µM
5 | C=C(C)[C@@H]1CC[C@]2(C(=O)OCc3ccccc3)CC[C@]3(C)[C@H](CC[C@@H]4[C@@]5(C)CC[C@H](OCc6cn(CCCCC(=O)O)nn6)C(C)(C)[C@@H]5CC[C@]43C)[C@@H]12 [Compound 5, 5-[4-({[(3β)-28-(Benzyloxy)-28-oxolup-20(29)-en-3-yl]oxy}-methyl)-1H-1,2,3-triazol-1-yl]pentanoic acid] | 15.8 ± 0.6 µM | 49.5 ± 0.7 µM | 20.3 ± 4.4 µM | 19.4 ± 2.1 µM |  |  |  |  | > 50 µM
6 | C=C(C)[C@@H]1CC[C@]2(C(=O)O)CC[C@]3(C)[C@H](CC[C@@H]4[C@@]5(C)CC[C@H](OCc6cn(CCCCC(=O)O)nn6)C(C)(C)[C@@H]5CC[C@]43C)[C@@H]12 [Compound 6, (3β)-3-{[1-(4-Carboxybutyl)-1H-1,2,3-triazol-4-yl]methoxy}lup-20(29)-en-28-oic Acid] | > 50 µM | > 50 µM | > 50 µM | > 50 µM |  |  |  | inactive | > 50 µM
7 | C=C(C)[C@@H]1CC[C@]2(C(=O)OCc3ccccc3)CC[C@]3(C)[C@H](CC[C@@H]4[C@@]5(C)CC[C@H](OCc6cn(CCCCC(=O)O[C@H]7CC[C@@]8(C)C(=CC[C@H]9[C@@H]%10C[C@@H]%11O[C@]%12(CC[C@@H](C)CO%12)[C@@H](C)[C@@H]%11[C@@]%10(C)CC[C@@H]98)C7)nn6)C(C)(C)[C@@H]5CC[C@]43C)[C@@H]12 [Compound 7, Benzyl (3β)-3-[(1-{5-oxo-5-[(3β,25R)-spirost-5-en-3-yloxy]pentyl}-1H-1,2,3-triazol-4-yl)methoxy]lup-20(29)-en-28-oate] | 6.5 ± 1.1 µM | > 50 µM | > 50 µM | > 50 µM |  |  |  | medium to weak multifarious cytotoxicity | 46.2 ± 2.8 µM
8 | C=C(C)[C@@H]1CC[C@]2(C(=O)O)CC[C@]3(C)[C@H](CC[C@@H]4[C@@]5(C)CC[C@H](OCc6cn(CCCCC(=O)O[C@H]7CC[C@@]8(C)C(=CC[C@H]9[C@@H]%10C[C@@H]%11O[C@]%12(CC[C@@H](C)CO%12)[C@@H](C)[C@@H]%11[C@@]%10(C)CC[C@@H]98)C7)nn6)C(C)(C)[C@@H]5CC[C@]43C)[C@@H]12 [Compound 8, (3β)-3-[(1-{5-Oxo-5-[(3β,25R)-spirost-5-en-3-yloxy]pentyl}-1H-1,2,3-triazol-4-yl]methoxy}lup-20(29)-en-28-oic Acid] | > 50 µM | > 50 µM | > 50 µM | > 50 µM |  |  |  |  | > 50 µM
9 | COc1cccc2c1C(=O)c1c(O)c3c(c(O)c1C2=O)C[C@@](O)(C(=O)CO)C[C@@H]3O[C@H]1C[C@H](N)[C@H](O)[C@H](C)O1 [Doxorubicin, reference compound] |  |  |  | 0.524 ± 0.177 µM | 0.278 ± 0.036 µM |  |  |  | 
